{"source": "patent EP2872621B1", "about": "“METHOD FOR THE GENERATION OF NON-TRANSFORMED MACROPHAGE CELL LINES” (Max-Planck-Gesellschaft zur Förderung der Wissenschaften …, priority 2012, dated 2014)", "key": {"MPI cells": {"tested_on": "MPI cells", "assay": "Cytokine response of MPI cells to microbial stimuli (ELISA, bioassay)", "format": "cell-based, mouse", "experimental": "Single cell suspensions (0.5x10^6 cells/ml) from fetal livers of 15 to 19 day-old mouse embryos or of livers of new-born mice (up to 2 weeks of age) were washed in PBS and resuspended in RPMI 1640 containing 10% fetal calf serum and supplemented with 20 ng/ml recombinant murine GM-CSF (also referred to herein as MPI medium). Rapidly proliferating cells were subcultured by splitting them 1:5 in MPI medium using cells detached with PBS/1.5 mM EDTA and floating cells in the culture. Cells proliferated more slowly after 2 weeks of culture. GM-CSF was replenished weekly and subcultures in MPI medium were made when total (attached and floating) cell density reached approximately 0.5 x 10^6 cell/ml. […]\n(§1) Sarcin assay, measuring Ad endosomal escape was done as described previously (Schreiner et al., 2012). […] Non-endotoxin ligands were substantially LPS-free (less than or equal to 1 pg LPS/1011 viral particles) as determined by the Limulus amebocyte lysate test from Pyroquant. […]\nDetection of secreted cytokines, surface antigens, intracellular proteins and enzymatic activity The following cytokines were detected with ELISA using commercially available antibody pairs or kits: mouse IL-6 (BD Bioscience), IL-1α (eBioscience), IL-1β (eBioscience) and IL-10 (eBioscience), human IL-6 (R&D Systems), IL-1α (eBioLegend) and IL-10 (BD Bioscience). […]"}, "BMMs": {"tested_on": "BMMs", "assay": "Cytokine response of BMMs to microbial stimuli (ELISA, bioassay)", "format": "cell-based, mouse", "text": "BMMs (Bone Marrow derived Macrophages) and GM-CSF induced BMDCs were generated as described (Fejer et al., 2008). The purity of BMMs was higher than 98%, of BMDCs approximately 80%. SP37A3 cells were originally grown in RPMI in the presence of GM-CSF and M-CSF as described (Bros et al., 2007). Cells growing in media with […] GM-CSF but without M-CSF were selected from the original cells and used further in the studies shown here.\nas §1\nDetection of secreted cytokines, surface antigens, intracellular proteins and enzymatic activity The following cytokines were detected with ELISA using commercially available antibody pairs or kits: mouse IL-6 (BD Bioscience), IL-1α (eBioscience), IL-1β (eBioscience) and IL-10 (eBioscience), human IL-6 (R&D Systems), IL-1α (eBioLegend) and IL-10 (BD Bioscience). IFN-αβ and TNF-α activities were measured with bioassays as described (Fejer et al., 2005). […] Intracellular proteins were detected on immunoblots with antibodies from Pharmingen BD (IL-1α and IL-1β) and Cell Signalling (phosphorylated isophorm of p38 MAPK). […]"}}}
{"substance": "FSL-1", "values": [{"measurement": "IFN-αβ production", "setting": "MPI cells; MPI cells", "result": "neither of the cell types produced IFN-αβ"}, {"measurement": "IL-6 and TNF-α levels", "setting": "MPI cells; MPI cells in comparison to BMMs", "result": "higher levels"}, {"measurement": "IFN-αβ production", "setting": "BMMs", "result": "neither of the cell types produced IFN-αβ"}]}
